Experimental data published in US9211244B2, “Method for anti-skin aging using caffeamide derivative” (CHINA MEDICAL UNIVERSITY, priority 2013, dated 2015).

Columns and labels:
[1] = Scavenging test of DPPH free radical; format: biochemical; conditions: for Scavenging efficiency (%): 200 μM DPPH, 30 minutes
Description: DPPH (1,1-diphenyl-2-picrylhydrazyl) was used as a source of free radicals to examine the scavenging efficiency of the caffeamide derivatives prepared in Example 1 on free radicals. […] The mixtures were placed in the dark at room temperature for 30 minutes and its absorbance at 517 nm was measured by an enzyme immunoassay analyzer. In this experiment, 50 volume % propanediol was used to replace extracts and to be a control group, ascorbic acid (vitamin C) was used as a positive control group, and methanol was used to replace DPPH as the background value. The scavenging efficiency of caffeamide derivatives on free radicals was examined by the formula blow, and the results are shown in Table 2, FIG. 1a, and FIG. 1b. Scavenging efficiency(%)=[the absorbance of the control group−the absorbance of the experimental group/the absorbance of the control group]×100%.

Smad7 = test: Promotion test of the expression of collagen, western blot; format: cell-based, human; conditions: UVB 40 mJ/cm^2
Description: (§1) It has been known that Smad3 protein can promote the expression level of procollagen-1, and Smad7 protein can inhibit the expression level of Smad3 protein. After cells were irradiated with UV rays, the expression levels of procollagen-1 and Smad3 protein will reduce and the expression level of Smad7 protein will increase. Therefore, in this experiment, the expression levels of intracellular procollagen-1 protein, Smad3 protein and Smad7 protein were analyzed by western blotting.
(§2) Specifically, when the concentration of the compound of formula (2) was 25 μM, the protein expression level of Smad7 was 1.1 times as compared to that of the untreated cells.

procollagen-1 = test: as above; format: cell-based, human; conditions: 25 μM; UVB 40 mJ/cm^2
Description: as §1, §2

Smad3 = test: as above; format: cell-based, human; conditions: UVB 40 mJ/cm^2; result in words
Description: as §1, §2

c-Jun = test: Inhibition test of AP-1 gene transcription factors, western blot; format: cell-based, human; conditions: UVB 40 mJ/cm^2
Description: (§3) When cells are irradiated by UV rays, JNK, p38 and c-Jun in the cells will translocated into the nucleus, and c-For will translocate into the nucleus under the regulation of ERK and p38. The two subunits of c-Jun and c-Fos will combine to form an AP-1 gene transcription factor to participate in gene expression process and increase the mRNA transcription level of MMP-1. On the other hand, the two subunits can also reduce the gene expression level of procollagen al of Type I collagen. Therefore, in this experiment, the expression of AP-1 in the nucleus was analyzed by western blotting.
(§4) However, after the cells were treated with the compound of formula (2) prepared in Example 1, the protein expression levels of c-Fos, p-c-Jun, and c-Jun induced by UVB were inhibited in a concentration dependent way. Specifically, when the concentration of the compound of formula (2) was 10 μM, the expression level of c-Fos was 1.1 as compared to that of the untreated cells.

c-Fos = test: as above; format: cell-based, human; conditions: 5 μM; UVB 40 mJ/cm^2
Description: as §3, §4

MMP-3 = test: MMP expression, western blot, UVB-irradiated Hs68 cells; format: cell-based, human; conditions: 5 μM; UVB 40 mJ/cm^2; 48 hours
Description: (§5) Human fibroblast Hs68 cells (5×10^5) (the number of Bioresource Collection and Research Center (BCRC): 60038) were counted and incubated in a culture dish with a diameter of 10 cm (the culture dish components were adjusted by L-glutamine (4 mM) to have 1.5 g/L NaHCO3, 4.5 g/L glucose, and 90% Dulbecco's Modified Eagle's Medium with 10% fetal bovine serum (FBS)). The medium was removed until human fibroblast Hs68 cells grow to a confluence of 80%, and the cells were then washed once with 5 ml PBS (phosphate buffered saline). Then, 3 ml phenol red-free medium which contain different concentrations (0 μM to 25 μM) of the compounds of formula (1) or formula (2) prepared in Example 1 were added into the culture dish. After incubating for 1 hour, the cells were irradiated by UV light (UVB with an intensity of 40 mJ/cm^2) for 15 seconds. Next, the phenol red-free medium which contains different concentrations (0 μM to 25 μM) of the compounds of formula (1) or formula (2) prepared in Example 1 were added into the culture dish sequentially. After incubation in an incubator (37° C., 5% CO2) for 48 hours, the cells were collected.
(§6) The collected cells were treated with a sonication buffer (containing Na3VO4 (100 μM), phenylmethanesulfonyl fluoride (PMSFL, 100 mg/ml), leupeptin (20 mg/ml), Tris-HCl (pH 7.4, 50 μM), NaCl (37.5 μM), DL-dithiothretiol (250 μM), sodium deoxycholate (3 μM), EDTA (1 μM), SDS (0.1%), and Igepal™ CA-630 (Sigma-Aldrich, 1%)) and sonicated to rupture the cell membranes. Then, the organelles and fragments of the cells were precipitated by centrifugation, and the supernatant, which contains proteins in the cytosol was collected. Next, the obtained proteins were separated by SDS-PAGE, and transferred to a membrane by western blotting. Antibodies were used to recognize the targeted proteins, such as MMP-1, MMP-3, MMP-9, and actin. The images were recorded by a Luminescent imagination technology (LAS-4000, FUJIFILM), and the variation of the proteins expression levels were determined by a quantitative analysis software (multi Gauge 2.2, Steware Technology Inc.).

MMP-1 = test: as above; format: cell-based, human; conditions: 5 μM; UVB 40 mJ/cm^2; 48 hours
Description: as §5, §6

[2] = tested on: human fibroblast Hs68 cells; test: Scavenging test of ROS free radicals in UVB-irradiated cells; format: cell-based; conditions: UVB 80 mJ/cm^2, 24 hours
Description: After incubated in an incubator (37° C., 5% CO2) for 24 hours, the ROS level was examined.

p-ERK = test: Inhibition test of the phosphorylation of MAPK, western blot; format: cell-based, human; conditions: UVB 40 mJ/cm^2
Description: (§7) It has been known that the skin photo-aging caused by UV rays will increase the content of MMPs in the dermis by the phosphorylation of MAPK. In this experiment, the effect of caffeamide derivative on the phosphorylation of MAPK in the cells was analyzed by western blotting.
(§8) After being treated with the compound of formula (2) prepared in Example 1, the protein expression levels of the MAPKs induced by UVB were inhibited in a concentration dependent way. Specifically, when the concentration of the compound of formula (2) was 10 μM, the expression level of P-ERK was 1.1 times as compared to that of the untreated cells. When the concentration of the compound of formula (2) was 5 μM, the expression levels of p-JNK and p-p38 were both 1.1 times as compared to that of the untreated cells.

p-JNK = test: as above; format: cell-based, human; conditions: UVB 40 mJ/cm^2
Description: as §7, §8

p-p38 = test: as above; format: cell-based, human; conditions: UVB 40 mJ/cm^2
Description: as §7, §8

[3] = tested on: human fibroblast Hs68 cells; test: Cellular toxicity evaluation, MTT assay; format: cell-based; conditions: 24 hours
Description: MTT (3-(4,5-dimethylthiazol-2-yl)-2,5-diphenyl tetrazolium bromide) assay was used to determine the cellular toxicity of the caffeamide derivatives described herein. First, different concentrations (0 μM to 100 μM) of the compounds of formula (1) or formula (2) prepared in Example 1 of the present invention were added, respectively, into a 96-well microplate which containing human fibroblast Hs68 cells (1×10^4 cells per well). After the cells were incubated in an incubator at 37° C. and 5% CO2 for 24 hours, 15 μl of MTT solution (0.5 mg/ml; dissolved in PBS) was added into the microplate and the human fibroblast Hs68 cells were incubated for 3 hours. Next, 75 μl SDS (sodium dodecyl sulfate) solution (10% SDS was dissolved in 0.01N HCl) was added into the microplate. After the cells were maintained for 24 hours, the absorbances of each well were measured at a wavelength of 570 nm by an enzyme immunoassay analyzer. Finally, the cell survival rate was calculated by the following formula to observe the cellular toxicity of compounds. The results are shown in Table 5, FIG. 10a and FIG. 10b. Cell survival rate(%)=absorbance of the experimental group/absorbance of the control group.

SMILES: O=C1O[C@H]([C@@H](O)CO)C(O)=C1O [Ascorbic acid, ascorbic acid, reference compound]
- Scavenging efficiency (%) ([1]; 25 μM): 57.5 ± 1.4%
- Scavenging efficiency (%) ([1]; 50 μM): 89.8 ± 0.9%

SMILES: O=C(C=Cc1ccc(O)c(O)c1)NCCc1ccccc1 [Compound of formula (1)]
- protein expression level of Smad7 as compared to that of the untreated cells (Smad7; 5 μM): 1.2 times
- protein expression level of Smad7 as compared to that of the untreated cells (Smad7; 10 μM): 0.7 times
- protein expression level of Smad7 as compared to that of the untreated cells (Smad7; 25 μM): 0.7 times
- protein expression level of procollagen-1 decreased by UVB, reversed to (procollagen-1): 0.7 times
- effect on protein expression level of Smad3 (Smad3): not affected
- expression level of c-Jun as compared to that of the untreated cells (c-Jun; 10 μM): 1.1 times
- expression level of c-Jun as compared to that of the untreated cells (c-Jun; 25 μM): 1.2 times
- expression level of c-Fos as compared to that of the untreated cells (c-Fos): 1.1 times
- expression level of MMP-3 as compared to that of the untreated cells (MMP-3): 1.0 times
- expression level of MMP-1 as compared to that of the untreated cells (MMP-1): 1.0 times
- EC50 ([1]; DPPH free radical scavenging, read-out: SC50 (the source's name)): 22.1 ± 1.3 µM
- Concentration of ROS (times compared to the untreated cells) ([2]; 5 μM): 1.2 ± 0.13 times
- Concentration of ROS (times compared to the untreated cells) ([2]; 10 μM): 1.0 ± 0.21 times
- Concentration of ROS (times compared to the untreated cells) ([2]; 25 μM): 0.8 ± 0.07 times
- Concentration of ROS (times compared to the untreated cells) ([2]; 25 μM, listed as compound of formula (1)): 0.8 times
- expression level of p-ERK as compared to that of the untreated cells (p-ERK; 10 μM): 1.2 times
- expression level of p-ERK as compared to that of the untreated cells (p-ERK; 25 μM): 1.3 times
- expression level of p-JNK as compared to that of the untreated cells (p-JNK; 10 μM): 1.2 times
- expression level of p-JNK as compared to that of the untreated cells (p-JNK; 25 μM): 0.8 times
- expression level of p-p38 as compared to that of the untreated cells (p-p38; 10 μM): 1.2 times
- expression level of p-p38 as compared to that of the untreated cells (p-p38; 25 μM): 1.0 times
- Cell survival rate (%) ([3]; 5 μM): 99.9 ± 1.8%
- Cell survival rate (%) ([3]; 10 μM): 99.5 ± 4.6%
- Cell survival rate (%) ([3]; 25 μM): 104.2 ± 3.7%
- Cell survival rate (%) ([3]; 50 μM): 107.8 ± 1.2%
